The structures appear in SMILES notation.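 48-hour exposure; five concentrations; linearly interpolated endpoints. GI50 is the concentration that inhibits growth by half. TGI: total growth inhibition.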 Where only a bound is given, the exact number is not on record here.

Test systems include RPMI-8226 leukemia; MDA-MB-231 breast; SF-268 CNS; HOP-92 NSCLC; OVCAR-4 ovarian; HCT-15 colon; UACC-257 melanoma; HL-60(TB) leukemia.
Assay in all cases: growth of human tumour cells (NCI), 48 h

Turning to `Nc1nc(N)c2cc(S(=O)(=O)c3cccc(C(F)(F)F)c3)ccc2n1`, the GI50 in the assay on RPMI-8226 leukemia is 5.21 µM; with MDA-MB-231 breast, 9.75 µM; with SF-268 CNS, 4.57 µM; in the assay with HOP-92 NSCLC, 3.56 µM; in the assay on OVCAR-4 ovarian it was 5.71 µM; with HCT-15 colon, 3.09 µM. Also, the TGI is greater than 100 µM with RPMI-8226 leukemia; greater than 100 µM with MDA-MB-231 breast; greater than 100 µM in the assay on SF-268 CNS; 38 µM in the assay on HOP-92 NSCLC; greater than 100 µM in the assay on OVCAR-4 ovarian; greater than 100 µM in the assay with HCT-15 colon.
For the compound `COc1ccc(CC(C)NCC(O)c2ccc(O)c(NC=O)c2)cc1` (stereo not drawn), the TGI in the assay on RPMI-8226 leukemia, in the assay on MDA-MB-231 breast, in the assay on SF-268 CNS, in the assay with OVCAR-4 ovarian, in the assay on HCT-15 colon and with UACC-257 melanoma was greater than 100 µM throughout.
Take `CC(C)(Sc1cc(C(C)(C)C)c(O)c(C(C)(C)C)c1)Sc1cc(C(C)(C)C)c(O)c(C(C)(C)C)c1`: the TGI with RPMI-8226 leukemia was greater than 100 µM; in the assay on MDA-MB-231 breast it was greater than 100 µM; in the assay with SF-268 CNS, greater than 100 µM; in the assay with HL-60(TB) leukemia, 3.08 µM; in the assay with OVCAR-4 ovarian it was greater than 100 µM; in the assay with HCT-15 colon it was greater than 100 µM. In addition, the TGI in the assay with UACC-257 melanoma is greater than 100 µM.
Consider `[Cu].c1ccc2c(c1)C1=NC2=NC2=NC(=NC3=NC(=NC4=NC(=N1)c1ccccc14)c1ccccc13)c1ccccc12`, for which the GI50 in the assay with RPMI-8226 leukemia, in the assay with MDA-MB-231 breast, with SF-268 CNS, with HOP-92 NSCLC, with OVCAR-4 ovarian and with HCT-15 colon was greater than 100 µM in each case. In addition, in the assay with UACC-257 melanoma, the GI50 is greater than 100000 nM. In addition, the TGI with RPMI-8226 leukemia, in the assay on MDA-MB-231 breast, in the assay with SF-268 CNS, with HOP-92 NSCLC, in the assay on OVCAR-4 ovarian and in the assay on HCT-15 colon was greater than 100 µM each time. The TGI with UACC-257 melanoma is greater than 100 µM.
In the case of `Cc1cc[c]([Sb]2[O]C(CO)C(C(O)C(O)C(=O)O)[O]2)cc1` (stereo not drawn), the GI50 with MDA-MB-231 breast is 78 µM; in the assay with SF-268 CNS, greater than 100 µM; in the assay on HOP-92 NSCLC, greater than 100 µM; in the assay on OVCAR-4 ovarian, greater than 100 µM; in the assay with HCT-15 colon, greater than 100 µM. Moreover, the TGI with MDA-MB-231 breast, with SF-268 CNS, with HOP-92 NSCLC, in the assay with OVCAR-4 ovarian and in the assay with HCT-15 colon was greater than 100 µM throughout.
On to `Clc1ccc(NCNC2Nc3ccccc3N2)cc1Cl`, for which the TGI in the assay on RPMI-8226 leukemia, in the assay on MDA-MB-231 breast, with SF-268 CNS, in the assay with HOP-92 NSCLC, in the assay on HL-60(TB) leukemia and in the assay on HCT-15 colon was greater than 100 µM throughout. Besides, the TGI in the assay on UACC-257 melanoma was greater than 100 µM.
`C[C@]12CC[C@H]3[C@@H](CCC4=CC(=O)CC[C@@]43C)[C@]1(O)CC[C@]2(O)C(=O)CO`: the TGI with RPMI-8226 leukemia, with MDA-MB-231 breast, in the assay with SF-268 CNS, with HL-60(TB) leukemia, in the assay on OVCAR-4 ovarian and with HCT-15 colon was greater than 100 µM in each case. Also, the TGI in the assay on UACC-257 melanoma was greater than 100 µM.
Regarding `O=c1[nH]c(=O)n(Cc2ccc(C34CC5CC(CC(C5)C3)C4)c(O)c2)cc1F`, the GI50 is 5.74 µM in the assay on RPMI-8226 leukemia; 14.3 µM in the assay on MDA-MB-231 breast; 18.5 µM in the assay on SF-268 CNS; 13.5 µM in the assay on HOP-92 NSCLC; 3050 nM in the assay on HL-60(TB) leukemia; 13.8 µM in the assay with OVCAR-4 ovarian. In the assay on HCT-15 colon, the GI50 was 10.2 µM. Besides, the TGI is 23.8 µM in the assay on RPMI-8226 leukemia; 28.9 µM with MDA-MB-231 breast; 65.6 µM in the assay on SF-268 CNS; 26.4 µM in the assay on HOP-92 NSCLC; 16 µM in the assay with HL-60(TB) leukemia; 30.2 µM with OVCAR-4 ovarian. The compound also yielded a TGI with HCT-15 colon of 22.3 µM.
For `Clc1ccc2c(NC3CCC(NC4CCCCC4)CC3)ccnc2c1` (stereo not drawn), the GI50 in the assay with RPMI-8226 leukemia was 2.26 µM; in the assay with MDA-MB-231 breast, 5.94 µM; in the assay on SF-268 CNS, 10.5 µM; in the assay on HOP-92 NSCLC, 1.2 µM; in the assay with OVCAR-4 ovarian, 6.48 µM; in the assay with HCT-15 colon, 3.52 µM. Further, the GI50 in the assay with UACC-257 melanoma was 2180 nM. Moreover, the TGI with RPMI-8226 leukemia worked out at 14.5 µM; in the assay on MDA-MB-231 breast, 23.8 µM; with SF-268 CNS, 25.6 µM; with HOP-92 NSCLC, 9.74 µM; in the assay on OVCAR-4 ovarian, 41 µM; in the assay with HCT-15 colon, 12.8 µM. In the assay with UACC-257 melanoma, the TGI turned out to be 4.17 µM.
Consider `c1ccc2[nH]c(-c3ccc(Nc4nc(N5CCCC5)nc5[nH]ncc45)cc3)nc2c1`, for which the GI50 with RPMI-8226 leukemia was 0.221 µM; with SF-268 CNS, 0.62 µM; in the assay on HOP-92 NSCLC, 1.14 µM; in the assay on HL-60(TB) leukemia it was 216 nM; in the assay on OVCAR-4 ovarian, 1.06 µM; in the assay on HCT-15 colon it was 0.255 µM. Moreover, in the assay on UACC-257 melanoma, the GI50 was 229 nM. Moreover, the TGI in the assay on RPMI-8226 leukemia worked out at 0.528 µM; with SF-268 CNS, 2.42 µM; with HOP-92 NSCLC, 2.75 µM; in the assay with HL-60(TB) leukemia it was 0.517 µM; in the assay on OVCAR-4 ovarian, 2.81 µM; in the assay on HCT-15 colon it was 0.763 µM. The compound also came in with a TGI with UACC-257 melanoma of 0.632 µM.
`O=C(O)CN(CCN(CC(=O)O)CC(=O)O)CCN(CC(=O)O)CC(=O)O`: the GI50 in the assay with MDA-MB-231 breast is 10.5 µM; with SF-268 CNS, 3.04 µM; with HOP-92 NSCLC, 11.5 µM; in the assay on HL-60(TB) leukemia, 2120 nM; in the assay with OVCAR-4 ovarian, 2.51 µM; with HCT-15 colon, 3.67 µM. Further, the GI50 with UACC-257 melanoma is 4350 nM. In addition, the TGI in the assay on MDA-MB-231 breast came out at 87.6 µM; in the assay on SF-268 CNS it was 10.8 µM; in the assay on HOP-92 NSCLC, 79 µM; in the assay with HL-60(TB) leukemia, 5.01 µM; in the assay with OVCAR-4 ovarian it was 7.51 µM; with HCT-15 colon, 20.9 µM. In the assay with UACC-257 melanoma, the TGI is 18.8 µM.
Consider `COc1cc(OC)c(OC)cc1/C=C/c1ccccn1`, for which the TGI in the assay on MDA-MB-231 breast, with SF-268 CNS, in the assay on HOP-92 NSCLC, in the assay with HL-60(TB) leukemia, with OVCAR-4 ovarian and in the assay with HCT-15 colon was greater than 10 µM each time. In the assay with UACC-257 melanoma, this compound registered a TGI greater than 10 µM.
Regarding `C=C1C(=O)O[C@@H]2C[C@@]3(C)CCC[C@H](C)C3=C[C@H]12` (tested in a mixture with another compound), the TGI in the assay with RPMI-8226 leukemia is 4.05 µM; in the assay on MDA-MB-231 breast, 6.72 µM; in the assay with SF-268 CNS, 7.2 µM; in the assay on HOP-92 NSCLC, 3.48 µM; in the assay on OVCAR-4 ovarian, 6.45 µM; with HCT-15 colon it was 4.39 µM. Besides, in the assay with UACC-257 melanoma, the TGI was determined as 3.75 µM.
